Test results taken from patent US20210163443A1, “Febrifugine Derivatives” (BRISTOL-MYERS SQUIBB COMPANY, priority 2019, published 2021).
pIC50: −log10 of the molar value. Counter-ions that a name gives are not always drawn.

Molecular target: T1, human ProRS (prolyl tRNA synthetase moiety of glutamyl prolyl tRNA synthetase, EPRS) (Homo sapiens, UniProt P07814)
T1 construct: The prolyl tRNA synthetase moiety (ProRS) in the cDNA of glutamyl prolyl tRNA synthetase was subcloned; 6xHis (N, cleaved yes); made in house; host or cells: E. coli BL21 (DE3)
T1 sequence (P07814 1007-1512 limits assumed): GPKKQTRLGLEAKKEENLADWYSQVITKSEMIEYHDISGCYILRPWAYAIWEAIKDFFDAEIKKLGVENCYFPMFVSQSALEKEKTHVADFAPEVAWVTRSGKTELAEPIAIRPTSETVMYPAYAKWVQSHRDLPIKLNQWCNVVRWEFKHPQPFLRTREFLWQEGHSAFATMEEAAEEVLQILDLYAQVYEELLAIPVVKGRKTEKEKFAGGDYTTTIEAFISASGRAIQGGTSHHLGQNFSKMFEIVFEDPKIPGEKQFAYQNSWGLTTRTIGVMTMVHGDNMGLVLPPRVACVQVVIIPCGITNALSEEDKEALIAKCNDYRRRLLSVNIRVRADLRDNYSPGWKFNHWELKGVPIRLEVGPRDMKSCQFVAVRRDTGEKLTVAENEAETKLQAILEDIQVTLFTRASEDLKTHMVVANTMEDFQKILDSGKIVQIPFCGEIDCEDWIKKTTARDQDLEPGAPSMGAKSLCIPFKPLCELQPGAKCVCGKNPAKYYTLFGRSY
Test: Assay for inhibitors of prolyl tRNA synthetase activity (ProRS assay, labeled proline incorporation)
Assay type: biochemical
Details: human ProRS 20 nM, 10 min at 37° C.; read-out: EPRS IC50
Text: In order to establish the activities of the compounds highlighted above, we determined extent of inhibition of prolyl tRNA synthetase activity in dose response curves to obtain IC50 values.
The prolyl tRNA synthetase moiety (ProRS) in the cDNA of glutamyl prolyl tRNA synthetase was subcloned, tagged with a single biotin, purified and used in the assay.
Briefly, human ProRS with a 6×N-terminal His tag in pET28N with TVMV BioP was transformed in E. coli BL21 (DE3) cells, selected, overexpressed and purified using a Ni Seph 6 FF XK 16/20 column in the first stage. Ni-NTA eluates were pooled and treated with TVMV protease, and biotinylated using d-Biotin, MgCl2, ATP and the BirA enzyme. This was rerun through a Ni column as before. The eluates were further enriched and purified using membrane ultrafiltration and a SuperDex 200 XK 16/60 column, and peak fractions were confirmed by SDS-PAGE prior to protein amount determination, aliquoting and storage at −80° C. • ProRS assay was performed in 96 well plates in a final reaction volume of 20 μl, using staggered additions of Tris-Cl (pH 7.5, 60 mM), dithiothreitol (2 mM), ATP (5 mM, pH 7.0), MgCl2 6 mM), ProRS (20 nM, with pre-determined active fraction range) and bovine tRNA (20 μg). Controls and compounds, at various concentrations (10 μM to 0.5 nM), were incubated on ice with enzyme mix for 15 min followed by addition of proline (non-labeled and labeled, 3.96 and 1.04 μM (1 μCi) respectively) to initiate the reaction. Reaction was carried out for 10 min at 37° C. and terminated by addition of TCA (10%, 100 μl). Reaction mix was collected on a Whatman GF/B filter using a vacuum filtration manifold. This filter was washed 3 times with 5% TCA followed by 2 washes with ethanol, air dried, and read using a liquid scintillation counter (TopCount NXT) using MicroScint O. IC50 values were calculated and analyzed using ToolSet (4-parameter plot) and depicted herein.

pIC50	Structure (SMILES)
7.31	COc1ccc2c(=O)n(CC(=O)C[C@H]3NCCC[C@@H]3O)cnc2c1C [Example 4, 3-{3-[(2R,3S)-3-Hydroxypiperidin-2-yl]-2-oxopropyl}-7-methoxy-8-methylquinazolin-4(3H)-one hydrochloride]
8.22	O=C(C[C@H]1NCCC[C@@H]1O)Cn1cnc2cccc(-c3ccc(F)c(F)c3)c2c1=O [Example 27, 5-(3,4-Difluorophenyl)-3-{3-[(2R,3S)-3-hydroxypiperidin-2-yl]-2-oxopropyl}quinazolin-4(3H)-one hydrochloride]
7.55	O=C(C[C@H]1NCCC[C@@H]1O)Cn1cnc2ccc(-c3cccc(Cl)c3)cc2c1=O [Example 17, 6-(3-Chlorophenyl)-3-{3-[(2R,3S)-3-hydroxypiperidin-2-yl]-2-oxopropyl}quinazolin-4(3H)-one hydrochloride]
7.28	O=c1c2c(-c3cccnc3)cccc2ncn1C[C@@H](O)C[C@H]1NCCC[C@@H]1O [Example 62, 3-{(S)-2-Hydroxy-3-[(2R,3S)-3-hydroxypiperidin-2-yl]propyl}-5-(pyridin-3-yl)quinazolin-4(3H)-one dihydrochloride]
8.22	O=C(C[C@H]1NCCC[C@@H]1O)Cn1cnc2cccc(-c3cccc(F)c3)c2c1=O [Example 15, 5-(3-Fluorophenyl)-3-{3-[(2R,3S)-3-hydroxypiperidin-2-yl]-2-oxopropyl}quinazolin-4(3H)-one hydrochloride]
7.39	Cl.O=c1c2c(-c3cccc(F)c3)cccc2ncn1C[C@@H](O)C[C@H]1NCCC[C@@H]1O [Example 49, 5-(3-Fluorophenyl-3-{(S)-2-hydroxy-3-[(2R,3S)-3-hydroxypiperidin-2-yl]propyl}quinazolin-4(3H)-one hydrochloride]
7.42	CCc1cc(F)cc2c(=O)n(CC(=O)C[C@H]3NCCC[C@@H]3O)cnc12 [Example 14, 8-Ethyl-6-fluoro-3-(3-((2R,3S)-3-hydroxypiperidin-2-yl)-2-oxopropyl)quinazolin-4(3H)-one hydrochloride]
8.10	O=C(C[C@H]1NCCC[C@@H]1O)Cn1cnc2cccc(F)c2c1=O [Example 5, 5-Fluoro-3-{3-[(2R,3S)-3-hydroxypiperidin-2-yl]-2-oxopropyl}quinazolin-4(3H)-one hydrochloride]
7.96	Cc1cc(-c2cccnc2)cc2c(=O)n(C[C@@H](O)C[C@H]3NCCC[C@@H]3O)cnc12 [Example 55, 3-{(S)-2-Hydroxy-3-[(2R,3S)-3-hydroxypiperidin-2-yl]propyl}-8-methyl-6-(pyridin-3-yl)quinazolin-4(3H)-one dihydrochloride]
8.22	CCc1cc(Br)cc2c(=O)n(CC(=O)C[C@H]3NCCC[C@@H]3O)cnc12 [Example 13, 6-Bromo-8-ethyl-3-{3-[(2R,3S)-3-hydroxypiperidin-2-yl]-2-oxopropyl}quinazolin-4(3H)-one hydrochloride]
8.22	O=C(C[C@H]1NCCC[C@@H]1O)Cn1cnc2cccc(-c3cccnc3)c2c1=O [Example 28, 3-{3-[(2R,3S)-3-Hydroxypiperidin-2-yl]-2-oxopropyl}-5-(pyridin-3-yl)quinazolin-4(3H)-one dihydrochloride]
6.50	Cc1ccc(C(F)(F)F)c2c(=O)n(CC(=O)C[C@H]3NCCC[C@@H]3O)cnc12 [Example 29, 3-{3-[(2R,3S)-3-Hydroxypiperidin-2-yl]-2-oxopropyl}-8-methyl-5-(trifluoromethyl)quinazolin-4(3H)-one hydrochloride]
7.42	O=c1c2c(-c3cccc(C(F)(F)F)c3)cccc2ncn1C[C@@H](O)C[C@H]1NCCC[C@@H]1O [Example 60, 3-{(S)-2-Hydroxy-3-[(2R,3S)-3-hydroxypiperidin-2-yl]propyl}-5-[3-(trifluoromethyl)phenyl]quinazolin-4(3H)-one hydrochloride]
7.85	O=c1c2cc(-c3cccc(F)c3)ccc2ncn1C[C@@H](O)C[C@H]1NCCC[C@@H]1O [Example 50, 6-(3-Fluorophenyl)-3-{(S)-2-hydroxy-3-[(2R,3S)-3-hydroxypiperidin-2-yl]propyl}quinazolin-4(3H)-one hydrochloride]

The remaining lines, values behind:

Structure (SMILES)	pIC50
O=c1c2cc(-c3cccc(Cl)c3)ccc2ncn1C[C@@H](O)C[C@H]1NCCC[C@@H]1O [Example 51, 6-(3-Chlorophenyl)-3-{(S)-2-hydroxy-3-[(2R,3S)-3-hydroxypiperidin-2-yl]propyl}quinazolin-4(3H)-one hydrochloride]	7.64
Cc1cc(C2CCC2)cc2c(=O)n(C[C@@H](O)C[C@H]3NCCC[C@@H]3O)cnc12 [Example 67, 6-cyclobutyl-3-{(S)-2-hydroxy-3-[(2R,3S)-3-hydroxypiperidin-2-yl]propyl}-8-methylquinazolin-4(3H)-one]	7.74
Cc1cc(C2CC2)cc2c(=O)n(CC(=O)C[C@H]3NCCC[C@@H]3O)cnc12 [Example 11, 6-Cyclopropyl-3-{3-[(2R,3S)-3-hydroxypiperidin-2-yl]-2-oxopropyl}-8-methylquinazolin-4(3H)-one hydrochloride]	8.22
Cc1cc(S(C)(=O)=O)cc2c(=O)n(C[C@@H](O)C[C@H]3NCCC[C@@H]3O)cnc12 [Example 43, 3-{(S)-2-Hydroxy-3-[(2R,3S)-3-hydroxypiperidin-2-yl]propyl}-8-methyl-6-(methylsulfonyl)quinazolin-4(3H)-one hydrochloride]	7.42
O=C(C[C@H]1NCCC[C@@H]1O)Cn1cnc2cccc(C(F)(F)F)c2c1=O [Example 25, 3-{3-[(2R,3S)-3-Hydroxypiperidin-2-yl]-2-oxopropyl}-5-(trifluoromethyl)quinazolin-4(3H)-one hydrochloride]	8.00
Cc1cc(C2CCOCC2)cc2c(=O)n(C[C@@H](O)C[C@H]3NCCC[C@@H]3O)cnc12 [Example 57, 3-{(S)-2-Hydroxy-3-[(2R,3S)-3-hydroxypiperidin-2-yl]propyl}-8-methyl-6-(tetrahydro-2H-pyran-4-yl)quinazolin-(3H)-one hydrochloride]	7.28
Cl.[2H]C([2H])([2H])c1cc(Cl)cc2c(=O)n(C[C@@H](O)C[C@H]3NCCC[C@@H]3O)cnc12 [Example 35, 6-Chloro-3-{(S)-2-hydroxy-3-[(2R,3S)-3-hydroxypiperidin-2-yl]propyl}-8-(methyl-d3)quinazolin-4(3H)-one hydrochloride]	7.49
Cc1cc(C#N)cc2c(=O)n(C[C@@H](O)C[C@H]3NCCC[C@@H]3O)cnc12 [Example 47, 3-{(S)-2-Hydroxy-3-[(2R,3S)-3-hydroxypiperidin-2-yl]propyl}-8-methyl-4-oxo-3,4-dihydroquinazoline-6-carbonitrile hydrochloride]	6.63
Cc1cc(C(C)C)cc2c(=O)n(CC(=O)C[C@H]3NCCC[C@@H]3O)cnc12 [Example 10, 3-{3-[(2R,3S)-3-Hydroxypiperidin-2-yl]-2-oxopropyl}-6-isopropyl-8-methylquinazolin-4(3H)-one hydrochloride]	8.22
Cc1cc(C(C)C)cc2c(=O)n(C[C@@H](O)C[C@H]3NCCC[C@@H]3O)cnc12 [Example 45, 3-{(S)-2-Hydroxy-3-[(2R,3S)-3-hydroxypiperidin-2-yl]propyl}-6-isopropyl-8-methylquinazolin-4(3H)-one hydrochloride]	7.68
Cc1cc(OC(F)(F)F)cc2c(=O)n(CC(=O)C[C@H]3NCCC[C@@H]3O)cnc12 [Example 7, 3-{3-[(2R,3S)-3-Hydroxypiperidin-2-yl]-2-oxopropyl}-8-methyl-6-(trifluoromethoxy)quinazolin-4(3H)-one hydrochloride]	8.05
Cc1cc(C2CCNCC2)cc2c(=O)n(C[C@@H](O)C[C@H]3NCCC[C@@H]3O)cnc12 [Example 69, 3-{(S)-2-hydroxy-3-[(2R,3S)-3-hydroxypiperidin-2-yl]propyl}-8-methyl-6-(piperidin-4-yl)quinazolin-4(3H)-one dihydrochloride]	6.97
